Source: US5262417A, “Antibacterial quinolone compounds” (The Upjohn Company, priority 1991, dated 1993)

How the values were obtained:
Format in all cases: cell-based
[1] = tested on: Escherichia coli UC 51 (EC); experiment: Dip disk (disk-diffusion) assay, disks loaded with 0.05 ml; details: 0.05 ml per disk; for Growth Inhibition Zone, EC: 0.1 mcg/ml; for zone of inhibition at 1 µg/mL: Escherichia coli, UC51, 1.0 mcg/ml, read-out: Growth Inhibition zone, EC
Description: (§1) The effectiveness of the subject compounds on bacteria were obtained by performing a dip disk assay. The antibacterial activity of the compounds was determined by the disk-diffusion method. Paper disks (12.7 mm) were loaded with 0.05 ml of drug solution prepared at a concentration of 0.1 mcg/ml; the disks were allowed to air dry. They were then applied to the surface of microorganism-seeded agar assay trays, which contained the bacterial strain Pseudomonas aeruginosa UC 95 (PA), Escherichia coli UC 51 (EC), Klebsiella pneumoniae UC 57 (KP), or Staphylococcus aureus UC 80 (SA). The assay trays were incubated overnight under aerobic condition to allow for the growth of the organisms. Zones of growth inhibition due to the action of the antibiotic were then measured to the nearest millimeter.
(§2) The effectiveness of additional compounds 5-9, (5-7 are Formula IAa compounds and 8 and 9 are Formula IAb compounds) on bacteria were obtained by performing a dip disk assay as described above. The antibacterial activity of the compounds was determined by the disk-diffusion method where the disks were loaded with 0.05 ml of drug solution prepared at a concentration of 1.0 mcg/ml; the disks were allowed to air dry.

[2] = tested on: Pseudomonas aeruginosa UC 95 (PA); experiment: as above; details: 0.05 ml per disk; for Growth Inhibition zone, PA: 0.1 mcg/ml; for zone of inhibition at 1 µg/mL: Pseudomonas aeruginosa, UC95, 1.0 mcg/ml, read-out: Growth Inhibition zone, PA
Description: as §1, §2

[3] = tested on: Staphylococcus aureus UC 80 (SA); experiment: as above; details: 0.05 ml per disk; for Growth Inhibition Zone, SA: 0.1 mcg/ml; for zone of inhibition at 1 µg/mL: Staphylococcus aureus, UC80, 1.0 mcg/ml, read-out: Growth Inhibition zone, SA
Description: as §1, §2

[4] = tested on: Klebsiella pneumoniae UC 57 (KP); experiment: as above; details: 0.05 ml per disk; for Growth Inhibition zone, KP: 0.1 mcg/ml; for zone of inhibition at 1 µg/mL: Klebsiella pneumoniae, UC57, 1.0 mcg/ml, read-out: Growth Inhibition zone, KP
Description: as §1, with “Paper disks (12.7 mm) were loaded with 0.05 ml of drug solution prepared at a concentration of 0.1 mcg/ml; the disks were allowed to air dry.” left out, “millimeter. […]” for “millimeter.”

[5] = tested on: Escherichia coli UC 51 (EC); experiment: Dipped disk (disk-diffusion) assay, disks loaded with 0.10 ml; details: 0.10 ml per disk
Description: (§3) The effectiveness of the subject compounds on some bacteria were obtained by performing a dipped disk assay. The antibacterial activity of the compounds is determined by the disk-diffusion method. […] They were then applied to the surface of microorganism-seeded agar assay trays, which contained the bacterial strain Pseudomonas aeruginosa UC 95 )PA), Escherichia coli UC 51 (EC) or Staphylococcus aureus UC 80 (SA). The assay trays were incubated overnight under aerobic condition to allow for the growth of the organisms. Zones of growth inhibition due to the action of the antibiotic were then measured to the nearest millimeter.

[6] = tested on: Pseudomonas aeruginosa UC 95 (PA); experiment: as above; details: Conc 0.1 mg/ml, 0.10 ml per disk
Description: as §3

[7] = tested on: Staphylococcus aureus UC 80 (SA); experiment: as above; details: 0.10 ml per disk
Description: as §3

[8] = tested on: Gram-positive and Gram-negative bacteria; experiment: Dipped disk assay, overall antibacterial activity (Formula IB)
Description: The effectiveness of the subject compounds on some bacteria were obtained by performing a dipped disk assay. The antibacterial activity of the compounds is determined by the disk-diffusion method. Paper disks (12.7 mm) were loaded with 0.10 ml of drug solution prepared at a concentration of 1 and 0.1 mcg/ml; the disks were allowed to air dry. They were then applied to the surface of microorganism-seeded agar assay trays, which contained the bacterial strain Pseudomonas aeruginosa UC 95 )PA), Escherichia coli UC 51 (EC) or Staphylococcus aureus UC 80 (SA). The assay trays were incubated overnight under aerobic condition to allow for the growth of the organisms. Zones of growth inhibition due to the action of the antibiotic were then measured to the nearest millimeter.

[9] = tested on: gram negative and positive; experiment: Compound 10 compared to ciprofloxacin, overall activity; details: compared with ciprofloxacin

Molecule | Growth Inhibition Zone, EC [1] [millimeter] | Growth Inhibition zone, PA [2] [millimeter] | Growth Inhibition Zone, SA [3] [millimeter] | Growth Inhibition zone, KP [4] [millimeter] | Growth Inhibition Zone, EC ([5]; Conc 0.1 mg/ml) [mm] | Growth Inhibition Zone, EC ([5]; Conc 1 mg/ml) [mm] | Growth Inhibition zone, PA [6] [mm] | Growth Inhibition Zone, SA ([7]; Conc 0.1 mg/ml) [mm] | Growth Inhibition Zone, SA ([7]; Conc 1 mg/ml) [mm] | gram negative and positive activity (in words) [8] | zone of inhibition at 1 µg/mL [1] [mm] | zone of inhibition at 1 µg/mL [2] [mm] | zone of inhibition at 1 µg/mL [3] [mm] | zone of inhibition at 1 µg/mL [4] [mm] | gram negative and positive activity (in words) [9]
2-[4-(1-Cyclopropyl-3-carboxy-6,8-difluoro-1,4-dihydro-4-oxo-7-quinolinyl)-1-piperazinyl]2-butenedioic acid, dimethyl ester [Compound 1] | 31 | 36 | 27 | 31 | 30 | 35 | 35 | 25 | 28 | potent gram negative and positive activity as compared to the commercially available antibacterial Ciprofloxacin |  |  |  |  | 
2-[4-(1-Ethyl-3-carboxy-6-fluoro-1,4-dihydro-4-oxo-7-quinolinyl)-1-piperizinyl]2-butanedioic acid, dimethyl ester [Compound 2] | 23 | 25 | 21 | 25 | 30 | 30 | 35 | 25 | 28 | potent gram negative and positive activity as compared to the commercially available antibacterial Ciprofloxacin |  |  |  |  | 
COC(=O)/C=C(\C(=O)OC)N1CCN(c2c(F)cc3c(=O)c(C(=O)O)cn(C4CCC4)c3c2F)CC1 [Compound 6, 2-[4-(3-carboxy-1-cyclobutyl-6,8-difluuoro-1,4-dihydro-4-oxo-7-quinolinyl)-1-piperazinyl]-2-butenedioic acid (E)-1,4-dimethyl ester] |  |  |  |  |  |  |  |  |  |  | 24 | 16 | 22 | 26 | 
COC(=O)/C=C(\C(=O)OC)N1CCN(c2c(F)cc3c(=O)c(C(=O)O)cn(-c4ccc(F)cc4)c3c2F)CC1 [Compound 7] |  |  |  |  |  |  |  |  |  |  | 24 | 15 | 22 | 26 | 
COC(=O)/C=C(/NC1CCN(c2c(F)cc3c(=O)c(C(=O)O)cn(-c4ccc(F)cc4F)c3c2F)C1)C(=O)OC (stereo not shown) [Compound 8, 2-[4-(3-carboxy-1-benzene(2,4-difluoro)-1,4-dihydro-4-oxo-7-quinolinyl)-1-(3-aminopyrrolidinyl)]-2-butenedioic acid, (E)-1,4-dimethyl ester] |  |  |  |  |  |  |  |  |  |  | 30 | 28 | 32 | 34 | 
COC(=O)/C=C(\C)NC1CCN(c2c(F)cc3c(=O)c(C(=O)O)cn(C4CC4)c3c2F)C1 (stereo not shown) [Compound 9, 2-[4-(3-carboxy-1-cyclopropyl-6,8-difluoro-1,4-dihydro-4-oxo-7-quinolinyl)-1-(3-aminopyrrolidinyl)]-3-butenoic acid-(E)-1-methyl ester] |  |  |  |  |  |  |  |  |  |  | 24 | 32 | 23 | 26 | 
COC(=O)/C=C(/NC1CCN(c2c(F)cc3c(=O)c(C(=O)O)cn(C4CC4)c3c2F)C1)C(=O)OC (stereo not shown) [Compound 10, 2-[4-(3-carboxy-1-cyclopropyl-6,8-difluoro-1,4-dihydro-4-oxo-7-quinolinyl)-1-(3-aminopyrrolidinyl)]-2-butenedioic acid-(E)-1,4-dimethyl ester] |  |  |  |  |  |  |  |  |  |  |  |  |  |  | gram negative and positive activity greatly increased over that of ciprofloxacin
